We go through six compounds from article PMC8986850, “Development and exploration of novel substituted thiosemicarbazones as inhibitors of aldose reductase via in vitro analysis and computational study” (Scientific Reports, 2022).

The target in one series is T1, ALR1 (Bos taurus, UniProt Q3ZCJ2).
T1 construct: The calf’s kidneys were obtained after slaughtering and dissection; from tissue; host or cells: calf kidneys
Put plainly: ALR1 enzyme inhibition assay (enzyme extracted from calf kidneys). The format is biochemical, bovine. To be noted: for inhibition at 100 µM: bovine kidney ALR1, 100 µM inhibitor, read-out: I (%, 100 µM) (ALR1). Here is the method: Compounds 3a-o were tested against ALR2 to evaluate their inhibitory potential against aldose reductase whereas selectivity was determined via performing ALR1 inhibition assay. For the enzyme inhibition assay, ALR2 and ALR1 were extracted from bovine sources (ALR2 from eyes and ALR1 from kidneys). Moreover, inhibitions studies were also carried out on the expressed ALR2 (human AKR1B1) and inhibition data for ALR2- bovine source and expressed enzyme was compared and analyzed. The protocols for enzyme extraction and expression in the bacterial system are included in the section of “Supporting information”. […] For the purpose of comparison and validation of enzyme inhibition data, these compounds were tested against human AKR1B1 (hAKR1B1) expressed in E. coli BL21 (DE3). We found a similar pattern of enzyme inhibition for the synthesized compounds against extracted enzyme (ALR2) as well as expressed enzyme (hAKR1B1).
(§1) For the determination of enzyme activity of ALR1 and ALR2, 100 µL of reaction mixture was composed of 20 µL of buffer (100 mM sodium phosphate, pH 6.2), 30 µL of enzyme extract, 20 µL of substrate (10 mM), 20 µL of cofactor (0.1 mM of NADPH) and 10 µL of test compound (1 mM)[6],[21]. The reaction mixture without cofactor was incubated at 32°C for 10 min, then the enzymatic reaction was initiated with the addition of NADPH and monitored for 5 minutes. Similar protocols were followed for ALR1 and ALR2, however the substrate was different for each enzyme, with sodium-D-glucoronate and DL-glyceraldehyde used as the substrates for the ALR1 and ALR2 assays, respectively. […] In addition, similar protocols were adopted for human AKR1B1 that was expressed in E. coli BL21 (DE3), though the determined protein concentration was 12 µg/mL for the expressed enzyme. Detailed protocols for the preparation of ALR1, ALR2 and expressed human AKR1B1 can be found in the supporting information.
(§2) The newly synthesized N-substitute thiosemicarbazones (3a-o) were dissolved in 100% DMSO and diluted with deionized water, keeping the DMSO concentration equal to 0.1% in the assay.
The calf’s kidneys were obtained after slaughtering and dissection, dissolved in 3 volumes of sodium phosphate buffer (10mM) which is composed of 2.0 mM EDTA, 2.5mM β-mercaptoethanol, 0.25M solution of sucrose at pH 7.25. First, the homogenisation was carried out then centrifugation of the homogenate was performed at 12000 x g at 0-2^◦C for 30 minutes. The precipitates containing insoluble lipids were discarded and the collected supernatant layer was treated with 40% saturation of ammonium sulphate. This liquid mixture was subjected to centrifugation at 11000 x g at 0-2^◦C for 30 minutes. Now, precipitates were again discarded and supernatant was collected and treated with 50% ammonium sulphate and procedure was repeated in the same manner as in previous step. In the last step, the saturation of ammonium sulphate was increased up to 75% and supernatant was subjected to same parameter of centrifugation. At this final step, precipitates were obtained and supernatant layer was discarded. The obtained material of precipitates was composed of ALR1and redissolved in initial buffer that was used during homogenisation. Finally, material was dialyzed overnight with same buffer system. The dialyzed fractions containing ALR1 were stored at -80^◦C for further use[5].

The next series concerns the target T2, human AKR1B1 (hAKR1B1) (Homo sapiens, UniProt P15121).
T2 construct: made in house; host or cells: E. coli BL21 (DE3)
As to the kind of experiment: Inhibition of expressed human AKR1B1 (E. coli BL21 (DE3)). It is filed as biochemical. To be noted: for inhibition at 100 µM: human AKR1B1 expressed in E. coli, 100 µM inhibitor, read-out: I (%, 100 µM) (AKR1B1); for IC50: human AKR1B1 expressed in E. coli BL21 (DE3), mean ± SEM of three measurements. Here is the method:
For the enzyme inhibition assay, ALR2 and ALR1 were extracted from bovine sources (ALR2 from eyes and ALR1 from kidneys). Moreover, inhibitions studies were also carried out on the expressed ALR2 (human AKR1B1) and inhibition data for ALR2- bovine source and expressed enzyme was compared and analyzed. The protocols for enzyme extraction and expression in the bacterial system are included in the section of “Supporting information”. […] For the purpose of comparison and validation of enzyme inhibition data, these compounds were tested against human AKR1B1 (hAKR1B1) expressed in E. coli BL21 (DE3).
as §1, with “The reaction mixture without cofactor was incubated at 32°C for 10 min, then the enzymatic reaction was initiated with the addition of NADPH and monitored for 5 minutes.” left out
as §2
The expression plasmid for aldose reductase (pDONR223_AKR1B1_WT) was gift from Addgene in stable culture. Streaking of this culture has been carried out on LB Agar plate then incubated overnight, after growth of colonies , inoculation was performed in LB medium then incubated this medium in shaking incubator at 37 °C. After 48 hours turbidity was measured when OD=0.6 then some of bacterial growth was prepared as 50% glycerol stock. Others are subjected to plasmid isolation following method Miniprep. Meanwhile E. Coli BL21 De3 cells were made competent then transformation with extracted plasmid (AKR1B1) had been carried out heat shock method. Transformed cell ( E.Coli BL21 DE3+AKR1B1) were grown in 37 °C in shaking incubator for 48 hr. The selection for transformed cells was carried out with the help of antibiotic (spectinomycin 50µg/ml). […] For the expression of aldose reductase , E.coli BL21DE3 were induced with of IPTG(Isopropyl-d-thiogalactopyranoside)[3]. […] The expressed enzyme was stabilized by addition 10 mM Tris–HCl buffer, 0.5 mM EDTA, 5 mM β-marcaptoethanol at pH 8.0 and 20% (v/v) glycerol. Cells were lysed with lysis buffer and then precipitation with ammonium sulfate up to 80% saturation was done . the expressed enzyme was dialyzed overnight against tris buffer. Protein quantification was performed following Bradford protein assay. Aliqoutes were stored at -80 refrigerator.

Series [1] in a line: DPPH radical scavenging activity. To be noted: 100 µM compound, methanolic DPPH 0.025 mg/mL, 517 nm. On the procedure: DPPH (2,2-diphenyl-1-picrylhydrazyl) was used to explore the free radical quenching ability of 3a-o so as to provide a gauge of their antioxidant potential. The experiment was conducted according to a previously reported protocol with slight modifications. Percent free radical scavenging activities (% FRSA) of 3a-o were determined by spectrophotometric analysis at 517 nm using a homogenous mixture of methanolic DPPH (0.025 mg/mL) and a 100 µM solution of the tested compound, with ascorbic acid used as a positive control (Fig. 3).

A further series concerns the target T3, ALR2 (Bos taurus, UniProt P16116).
T3 construct: from tissue; host or cells: calf eye lenses
As to the kind of experiment: ALR2 enzyme inhibition assay (enzyme extracted from calf lenses). It is filed as biochemical, bovine. To be noted: for inhibition at 100 µM: bovine lens ALR2, 100 µM inhibitor, read-out: I (%, 100 µM) (ALR2) (converted); for IC50: bovine lens ALR2, substrate DL-glyceraldehyde, mean ± SEM of three measurements. Here is the method: Compounds 3a-o were tested against ALR2 to evaluate their inhibitory potential against aldose reductase whereas selectivity was determined via performing ALR1 inhibition assay. For the enzyme inhibition assay, ALR2 and ALR1 were extracted from bovine sources (ALR2 from eyes and ALR1 from kidneys). Moreover, inhibitions studies were also carried out on the expressed ALR2 (human AKR1B1) and inhibition data for ALR2- bovine source and expressed enzyme was compared and analyzed. The protocols for enzyme extraction and expression in the bacterial system are included in the section of “Supporting information”. […] For the purpose of comparison and validation of enzyme inhibition data, these compounds were tested against human AKR1B1 (hAKR1B1) expressed in E. coli BL21 (DE3).
as §1, §2
The extraction of ALR2 was carried out from calf lenses via adopting method described in
in (Hayman and Kinoshita 1965) with little modification. The lenses were obtained from slaughterhouse immediately after calf’s slaughtering and stored at -20^◦C until further use. These lense (150-170g) were subjected to homogenization with about three times volume of cold distilled water and then centrifugation was carried out for the homogenate at 10,000 x g for 14 minutes for removal of insoluble lipids particles. Precipitates were discarded and supernatant layer was subjected to 40% saturation of ammonium sulphate and again centrifugation was performed with same parameters for 14 minutes and again precipitates were discarded. […] In the last step, the supernatant was subjected to 75% of saturation with ammonium sulphate to obtain ALR2. Now, the precipitates were collected instead supernatant because precipitated protein was the expected desired ALR2. The precipitated enzyme (ALR2) was redissolved in 50mM solution of sodium chloride and dialyzed for 24 hours against 50mM solution (3.5L) of NaCl. The volume was recorded before and after dialysis, then dialyzed material was treated with liquid nitrogen. The extracted ALR2 was stored in 1mL Eppendorf tube in deep freezer at -80 ^◦C till further enzymatic studies.

Structures are written as SMILES.

As usually defined, the melting point is the temperature, or range, at which the solid turns liquid. Broadly, the IC50 is the midpoint of a concentration-inhibition curve. Low readings indicate greater potency in that assay, high ones weaker potency in that assay.

T1 sequence (Q3ZCJ2 whole entry): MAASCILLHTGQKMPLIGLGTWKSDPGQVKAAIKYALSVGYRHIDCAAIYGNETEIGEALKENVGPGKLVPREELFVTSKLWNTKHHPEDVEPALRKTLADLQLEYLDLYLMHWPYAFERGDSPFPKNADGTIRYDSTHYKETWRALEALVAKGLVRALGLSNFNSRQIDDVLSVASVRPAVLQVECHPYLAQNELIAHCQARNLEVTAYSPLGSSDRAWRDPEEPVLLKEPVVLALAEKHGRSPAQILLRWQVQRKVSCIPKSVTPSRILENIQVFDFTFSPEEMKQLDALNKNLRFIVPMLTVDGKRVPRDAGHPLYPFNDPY

For the compound `Cc1ccc(NC(=S)NN=Cc2cc(C(C)(C)C)cc(C(C)(C)C)c2O)c(C)c1` [Compound 3b, 2-(3,5-di-tert-butyl-2-hydroxybenzylidene)-N-(2,4-dimethylphenyl)hydrazine carbothioamide], the melting point was 186 to 188 °C. The inhibition at 100 µM on ALR1 is no more than 31.6%. The inhibition at 100 µM at human AKR1B1 (hAKR1B1) turned out to be 27.4%. For the same compound, in series [1], the “% FRSA (percent free radical scavenging activity)” value stood at 84.05%. For the same compound, the inhibition at 100 µM at ALR2 was no more than 44.6%.
Turning to `COc1cccc(NC(=S)NN=Cc2cc(C(C)(C)C)cc(C(C)(C)C)c2O)c1` [Compound 3c, 2-(3,5-di-tert-butyl-2-hydroxybenzylidene)-N-(3-methoxyphenyl)hydrazine carbothioamide], the melting point was 173 to 175 °C. Further, the IC50 against ALR1 (bovine kidney ALR1, substrate sodium-D-glucoronate, mean ± SEM of three measurements) was determined as 4.21 ± 0.0021 µM. This compound also had a concentration for half-maximal inhibition (IC50) at human AKR1B1 (hAKR1B1) of 3.27 ± 0.0035 µM. Further, the “% FRSA (percent free radical scavenging activity)” value in series [1] came out at 85.16%. For the same compound, on ALR2, the IC50 is 4.49 ± 0.0034 µM.
Turning to `CC(C)(C)c1cc(C=NNC(=S)NCc2ccc(Cl)cc2)c(O)c(C(C)(C)C)c1` [Compound 3f, N-(4-chlorobenzyl)-2-(3,5-di-tert-butyl-2-hydroxybenzylidene)hydrazine carbothioamide], the melting point is 184 to 186 °C. For the same compound, the inhibition at 100 µM at ALR1 lay in the range of 4.27 to 26.2%. This compound yielded a half-inhibitory concentration (IC50) on human AKR1B1 (hAKR1B1) of 3.04 ± 0.0034 µM. Further, the “% FRSA (percent free radical scavenging activity)” value in series [1] is recorded as 82.98%. The IC50 against ALR2 came to 3.12 ± 0.0031 µM.
The corresponding values for `CC(C)(C)c1cc(C=NNC(=S)Nc2cccc(Cl)c2Cl)c(O)c(C(C)(C)C)c1` [Compound 3j, 2-(3,5-di-tert-butyl-2-hydroxybenzylidene)-N-(2,3-dichlorophenyl)hydrazine carbothioamide] are 193 to 195 °C, 4.27 to 26.2%, 2.75 ± 0.003 µM, 89.75% and 4.01 ± 0.0021 µM.
Take `Cc1ccc(NC(=S)NN=Cc2cc(C(C)(C)C)cc(C(C)(C)C)c2O)cc1` [Compound 3k, 2-(3,5-di-tert-butyl-2-hydroxybenzylidene)-N-(p-tolyl)hydrazinecarbothioamide]: the melting point lay in the range of 186 to 188 °C. The inhibition at 100 µM at ALR1 was no more than 31.6%. Besides, the inhibition at 100 µM at human AKR1B1 (hAKR1B1) is 41.2%. Also, the “% FRSA (percent free radical scavenging activity)” value in series [1] is on record as 86.60%. Further, the inhibition at 100 µM on ALR2 was no more than 44.6%.
The matching figures for `CC(C)(C)c1cc(C=NNC(=S)NCCc2ccccc2)c(O)c(C(C)(C)C)c1` [Compound 3o, 2-(3,5-di-tert-butyl-2-hydroxybenzylidene)-N-phenethylhydrazinecarbothioamide]: 174 to 176 °C, no more than 29.9%, 24.9%, 83.02% and no more than 39.1%.
